# Laboratory results taken from article PMC10615177 (ACS infectious diseases, 2023).
# Where two headings read alike, the source gives them in different places.
# Legend:
# [1] = test system: T. brucei bloodstream forms; test: T. brucei bloodstream form growth inhibition; type: cell-based, Trypanosoma brucei; conditions: read-out: T. brucei IC50
# [2] = Mice liver microsome stability; conditions: mice microsomes
# [3] = test system: HepG2 (human hepatocellular carcinoma) cells; test: HepG2 cell line viability; conditions: 20 μM
# M. tuberculosis Erdman = M. tuberculosis Erdman growth inhibition; type: cell-based, Mycobacterium tuberculosis
# U2OS host cells = test: U2OS host cell growth inhibition; conditions: read-out: T. cruzi CC50 (U20S)
# [4] = test system: T. cruzi Dm28c intracellular amastigotes; test: T. cruzi intracellular amastigote inhibition; type: cell-based, Trypanosoma cruzi; conditions: read-out: T. cruzi IC50 (PAR)
# [5] = test system: Plasmodium falciparum asexual blood stages; test: P. falciparum asexual blood stage; type: cell-based
# M. smegmatis = M. smegmatis cell growth inhibition; type: cell-based, Mycobacterium smegmatis
# E. coli = E. coli growth inhibition; type: cell-based, Escherichia coli; conditions: read-out: Ec IC50
# [6] = test system: L. mexicana promastigotes; test: L. mexicana promastigote growth inhibition; type: cell-based, Leishmania mexicana
# [7] = Human liver microsome stability
# M. tuberculosis H37Rv = M. tuberculosis H37Rv growth inhibition; type: cell-based, Mycobacterium tuberculosis
# [8] = test system: L. donovani promastigotes; test: L. donovani promastigote growth inhibition; type: cell-based, Leishmania donovani; conditions: read-out: L. donovani IC50
# [9] = test system: M. abscessus smooth variant; test: microbe, parasite or virus in culture; type: cell-based; conditions: for MIC: Mycobacteroides abscessus
# M. tuberculosis HN878 = M. tuberculosis HN878 growth inhibition; type: cell-based, Mycobacterium tuberculosis
# [10] = target: M. tuberculosis MmpL3 (MtMmpL3) (Mycobacterium tuberculosis, UniProt P9WJV5); test: Surface plasmon resonance binding to MmpL3
# M. tuberculosis MmpL3 (MtMmpL3), sequence (P9WJV5 whole entry): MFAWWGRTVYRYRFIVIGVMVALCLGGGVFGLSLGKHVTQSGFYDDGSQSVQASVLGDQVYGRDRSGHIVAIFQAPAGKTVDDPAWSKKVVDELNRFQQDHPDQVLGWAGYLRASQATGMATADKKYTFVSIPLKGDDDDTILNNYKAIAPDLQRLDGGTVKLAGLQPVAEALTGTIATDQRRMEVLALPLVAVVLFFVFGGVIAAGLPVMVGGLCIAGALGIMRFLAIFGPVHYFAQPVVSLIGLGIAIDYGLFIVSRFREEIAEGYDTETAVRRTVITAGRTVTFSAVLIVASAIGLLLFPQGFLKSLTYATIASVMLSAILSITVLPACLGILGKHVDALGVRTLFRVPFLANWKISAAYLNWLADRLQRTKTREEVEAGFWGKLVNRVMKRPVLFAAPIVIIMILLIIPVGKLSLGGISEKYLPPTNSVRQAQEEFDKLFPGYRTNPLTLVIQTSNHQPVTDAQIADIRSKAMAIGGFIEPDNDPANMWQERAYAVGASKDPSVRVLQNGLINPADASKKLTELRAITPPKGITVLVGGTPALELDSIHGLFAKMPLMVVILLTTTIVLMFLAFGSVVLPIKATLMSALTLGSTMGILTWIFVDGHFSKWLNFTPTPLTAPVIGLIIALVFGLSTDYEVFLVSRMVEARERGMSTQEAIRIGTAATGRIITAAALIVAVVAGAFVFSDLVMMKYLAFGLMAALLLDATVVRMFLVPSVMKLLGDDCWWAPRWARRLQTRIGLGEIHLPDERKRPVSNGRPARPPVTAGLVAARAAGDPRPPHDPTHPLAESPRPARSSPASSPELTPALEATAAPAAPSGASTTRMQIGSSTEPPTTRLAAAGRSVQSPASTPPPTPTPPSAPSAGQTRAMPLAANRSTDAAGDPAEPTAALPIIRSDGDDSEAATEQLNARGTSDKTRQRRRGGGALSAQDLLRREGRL
# [11] = DSC of DMPC bilayers with inhibitor; type: physicochemical; conditions: for Tm (main transition) / ΔH / ΔT1/2: 10 wt % inhibitor, PBS pH 7.4, heating; for Decrease of Tm compared to DMPC without inhibitor: heating
# [12] = Rat liver microsome stability; conditions: rat liver microsomes
# [13] = DSC of DSPG bilayers with inhibitor; type: physicochemical; conditions: for Tm (main transition) / ΔH / ΔT1/2: 10 wt % inhibitor, PBS pH 7.4, heating; for Broadening of main transition peak ΔΤ1/2 compared to pure DSPG / Decrease of Tm compared to DSPG alone: heating
# [14] = test system: M. abscessus rough variant; test: microbe, parasite or virus in culture; type: cell-based
# [15] = test system: T. cruzi Dm28c epimastigotes; test: T. cruzi epimastigote growth inhibition; type: cell-based, Trypanosoma cruzi; conditions: read-out: T. cruzi IC50 (EPI)
# in vitro [16] = conditions: human
# in vitro [17] = conditions: human; remark: listed apart in the source
# [18] = test system: M. abscessus strain PIPD1^R1 (A309P mutation in MmpL3)
# [19] = dog, in vivo; cited from earlier work
# Bacillus subtilis = test: B. subtilis growth inhibition; type: cell-based; conditions: Bacillus subtilis, read-out: Bs IC50
# [20] = [14C-SQ109], mice; cited from earlier work
# [21] = rat, in vivo; cited from earlier work
# [22] = test system: M. abscessus strain PIPD1^R1 (A309P mutation in MmpL3); conditions: cited from earlier work
# [23] = read-out: PfABS IC50 (μM ± S.E.), asexual blood stages
# [24] = read-out: L. mexicana IC50, promastigotes
smiles,measurement,setting,value
"CC(C)=CCCC(C)=CCNCCNC1(C)C2CC3CC(C2)CC1C3 (stereo not drawn) [Compound 8b, N-(3,7-dimethylocta-2,6-dien-1-yl)-N´-(2-methyl-2-adamantanyl)ethane-1,2-diamine]",IC50,[1]; bloodstream forms,2.1 ± 0.02 µM
same,Intrinsic clearance rate (CLint) relative to SQ109,[2],essentially the same
same,HepG2 % viability @ 20 μM,[3],100%
same,Mtb Erdman MIC,M. tuberculosis Erdman,3.5 µM
same,CC50,U2OS host cells,2.8 ± 0.7 µM
same,IC50,[4]; intracellular amastigotes in U2OS host cells,0.77 ± 0.2 µM
same,IC50,[5]; [23],0.66 ± 0.18 µM
same,IC50,"M. smegmatis; read-out: Ms IC50, M. smegmatis",4.4 ± 0.5 µM
same,IC50,E. coli,25 µM
same,IC50,[6]; [24],0.43 ± 0.08 µM
same,Intrinsic clearance rate (CLint) relative to SQ109,[7]; human liver microsomes,about twice as large
same,Stability relative to SQ109 (% remanent at 60 minutes),"[7]; human, mice and rat liver microsomes",2–4 x
same,Mtb H37Rv MIC,M. tuberculosis H37Rv,3.5 µM
same,IC50,[8]; promastigotes,2 ± 1 µM
same,Ma(S) MIC,[9],43 µM
same,"IC50 higher than SQ109, MtHN878",M. tuberculosis HN878,~ 3 fold
same,Less activity than SQ109 against M. tuberculosis,"M. tuberculosis HN878; MtbHN878, MtErdman and MtH37Rv",2–4 fold
same,IC50,"M. tuberculosis HN878; read-out: Mtb HN878 IC50, dose-response curves",0.86 ± 0.06 µM
same,Mtb HN878 MIC,M. tuberculosis HN878; visual inspection,0.8 µM
same,koff,[10]; 1:1 Langmuir binding model,0.6882 s⁻¹
same,Kd,"[10]; read-out: KD, 1:1 model, 1:1 binding model, from ratio of rate constants",188 µM
same,Kd,"[10]; read-out: KD, 2-state, two-state model, from rate constants",248 µM
same,ka1,[10]; two-state model,4958 M⁻¹ s⁻¹
same,ka2,[10]; two-state model,0.01084 s⁻¹
same,kd1,[10]; two-state model,1.613 s⁻¹
same,kd2,[10]; two-state model,0.03486 s⁻¹
same,Tm (main transition),[11],17.9 °C
same,ΔH,[11],6.12 kcal/mol
same,ΔT1/2,[11],2.2 °C
same,Decrease of Tm compared to DMPC without inhibitor,[11],ca. 5.6 °C
same,Intrinsic clearance rate (CLint) relative to SQ109,[12],about twice as large
same,Tm (main transition),[13],50.5 °C
same,ΔH,[13],12.7 kcal/mol
same,ΔT1/2,[13],2.0 °C
same,Broadening of main transition peak ΔΤ1/2 compared to pure DSPG,[13],0.2–1.6 °C
same,Decrease of Tm compared to DSPG alone,[13],3–4 °C
same,Ma(R) MIC,[14],22 µM
same,IC50,[15]; epimastigotes,3.5 ± 1 µM
"CC(C)=CCC/C(C)=C/CNCCNC1C2CC3CC(C2)CC1C3 (stereo not drawn) [Compound 8a, N-geranyl-N΄-(2-adamantyl)ethane-1,2-diamine, reference compound]",viability at 20 µM,in vitro [16],97%
same,IC50,[1]; Trypanosoma brucei,0.91 ± 0.03 µM
same,CC50,in vitro [17],4.1 ± 0.2 µM
same,MIC,"M. tuberculosis Erdman; Mycobacterium tuberculosis, ERDMAN, read-out: Mtb Erdman MIC",1.8 µM
same,Resistance of A309P MmpL3 mutant,[18],not resistant
same,half-life,[19],> 5 h
same,IC50,Bacillus subtilis,16 µM
same,half-life,[20],5 h
same,IC50,"[4]; Trypanosoma cruzi, U2OS",0.74 ± 0.04 µM
same,IC50,"[5]; Plasmodium falciparum, read-out: PfABS IC50 (μM ± S.E.), asexual blood stages",1.6 µM
same,IC50,[5]; [23],1.58 ± 0.2 µM
same,IC50,"M. smegmatis; Mycolicibacterium smegmatis, read-out: Ms IC50, M. smegmatis",~2.4 µM
same,IC50,E. coli; Escherichia coli,15 µM
same,IC50,"[6]; Leishmania mexicana, read-out: L. mexicana IC50, promastigotes",0.5 µM
same,IC50,[6]; [24],0.73 ± 0.2 µM
same,MIC,"M. tuberculosis H37Rv; Mycobacterium tuberculosis, H37RV, read-out: Mtb H37Rv MIC",1.8 µM
same,IC50,[8]; Leishmania donovani,2 ± 0.1 µM
same,half-life,[21],> 5 h
same,MIC,[9]; read-out: MIC against M. abscessus,22 to 44 µM
same,MIC,[9]; read-out: Ma(S) MIC,44 µM
same,MIC,"M. tuberculosis HN878; Mycobacterium tuberculosis, HN878, read-out: MIC against M. tuberculosis",0.3 to 1 µM
same,IC50,"M. tuberculosis HN878; Mycobacterium tuberculosis, HN878, read-out: Mtb HN878 IC50, dose-response curves",0.27 ± 0.02 µM
same,MIC,"M. tuberculosis HN878; Mycobacterium tuberculosis, HN878, read-out: Mtb HN878 MIC",0.4 µM
same,ka1,[10]; two-state model,429.8 M⁻¹ s⁻¹
same,ka2,[10]; two-state model,0.005315 s⁻¹
same,kd1,[10]; two-state model,1.098 s⁻¹
same,kd2,[10]; two-state model,0.02222 s⁻¹
same,Tm (main transition),[11],20.6 °C
same,ΔH,[11],5.57 kcal/mol
same,ΔT1/2,[11],2.6 °C
same,Decrease of Tm compared to DMPC without inhibitor,[11],3–4 °C
same,Tm (main transition),[13],50.4 °C
same,ΔH,[13],12.9 kcal/mol
same,ΔT1/2,[13],2.1 °C
same,Broadening of main transition peak ΔΤ1/2 compared to pure DSPG,[13],0.2–1.6 °C
same,Decrease of Tm compared to DSPG alone,[13],3–4 °C
same,MIC,"[14]; Mycobacteroides abscessus, read-out: Ma(R) MIC",22 µM
same,IC50,[15]; Trypanosoma cruzi,6.8 ± 2 µM
Cc1ccccc1CN1CCC(O)(c2ccc(Cl)c(C(F)(F)F)c2)CC1 [PIPD1],Resistance (fold),[22]; MmpL3 inhibitor resistance,32–64 x
same,Resistance of strain PIPD1^R1,[22],very high resistance
